pKi: −log10 of the molar value. Counter-ions that a name gives are not always drawn.
What follows are molecules tested against T1, Recombinant human M3 receptor (Homo sapiens, UniProt P20309) (assay: biochemical). Conditions: SPA format; read-out: M3 Ki (SPA format).
T1 construct: expressed in transfected cells; host or cells: CHO-K1 cells (membranes)
Assay type: binding
Procedure: Recombinant human M3 receptor was expressed in CHO-K1 cells. Cell membranes were prepared and binding of [3H]-N-methyl scopolamine ([3H]-NMS) and compounds was assessed by a scintillation proximity assay (SPA). The incubation time was 16 hours at room temperature in the presence of 1% (v/v) DMSO. The assay was performed in white 96 well clear-bottomed NBS plates (Corning). Prior to the assay, the CHO cell membranes containing M3 receptor were coated onto SPA WGA (Wheat germ agglutinin) beads (GE Healthcare). Non specific binding was determined in the presence of 1 μM Atropine.
Radioactivity was measured on a Microbeta scintillation counter (PerkinElmer) using a 3H protocol with a 2 minutes per well read time. […] Concentration dependent inhibition of [3H]-NMS binding by compounds was expressed as pIC50.

T1 sequence (P20309 whole entry): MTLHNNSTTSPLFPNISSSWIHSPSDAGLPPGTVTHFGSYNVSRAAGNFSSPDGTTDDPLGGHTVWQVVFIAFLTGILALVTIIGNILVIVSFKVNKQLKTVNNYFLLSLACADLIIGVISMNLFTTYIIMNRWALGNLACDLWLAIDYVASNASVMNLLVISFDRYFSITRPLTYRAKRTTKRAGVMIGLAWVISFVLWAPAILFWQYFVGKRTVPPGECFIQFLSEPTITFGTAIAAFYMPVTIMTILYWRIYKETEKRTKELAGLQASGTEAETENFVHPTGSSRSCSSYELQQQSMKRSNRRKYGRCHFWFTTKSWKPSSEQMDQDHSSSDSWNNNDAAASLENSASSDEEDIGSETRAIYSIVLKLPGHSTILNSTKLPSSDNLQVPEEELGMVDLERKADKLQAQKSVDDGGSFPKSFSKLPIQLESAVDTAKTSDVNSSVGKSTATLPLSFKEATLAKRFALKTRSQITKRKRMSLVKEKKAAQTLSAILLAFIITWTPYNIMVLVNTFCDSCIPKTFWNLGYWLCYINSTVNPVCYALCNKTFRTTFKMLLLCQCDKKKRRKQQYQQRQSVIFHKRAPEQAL

Compound | pKi
C/C=C/CO[C@H]1C[N+]2(Cc3cnc([C@](O)(c4ccccc4)C4CCCCC4)o3)CCC1CC2 [Example 113, (R)-3-[((E)-But-2-enyl)oxy]-1-[2-((R)-cyclohexyl-hydroxy-phenyl-methyl)-oxazol-5-ylmethyl]-1-azonia-bicyclo[2.2.2]octane; bromide] | > 8.30
O[C@](c1ccccc1)(c1ncc(C[N+]23CCC(COCc4ccccc4)(CC2)CC3)o1)C1CCCCC1 [Example 47, 4-Benzyloxymethyl-1-[2-((R)-cyclohexyl-hydroxy-phenyl-methyl)-oxazol-5-ylmethyl]-1-azonia-bicyclo[2.2.2]octane; bromide] | < 7.70
OC(c1ccccc1)(c1ccccc1)c1ncc(C[N+]23CCC(CC2)C(COc2ccc(F)cc2)C3)o1 (single isomer, unassigned) [Example 86, 3-(4-Fluoro-phenoxymethyl)-1-[2-(hydroxy-diphenyl-methyl)-oxazol-5-ylmethyl]-1-azonia-bicyclo[2.2.2]octane; bromide] | 7.70 to 8.30
O[C@](c1ccccc1)(c1ncc(C[N+]23CCC(CC2)[C@@H](OCc2cccc(F)c2)C3)o1)C1CCCCC1 [Example 35, (R)-1-[2-((R)-cyclohexyl-hydroxy-phenyl-methyl)-oxazol-5-ylmethyl]-3-(3-fluoro-benzyloxy)-1-azonia-bicyclo[2.2.2]octane; formate] | > 8.30
O[C@](c1ccccc1)(c1ncc(C[N+]23CCC(CC2)[C@H](CSc2cccc(F)c2)C3)o1)C1CCCCC1 [Example 111, (S)-1-[2-((R)—Cyclohexyl-hydroxy-phenyl-methyl)-oxazol-5-ylmethyl]-3-(3-fluoro-phenylsulfanylmethyl)-1-azonia-bicyclo[2.2.2]octane; bromide] | > 8.30
O[C@](c1ccccc1)(c1ncc(C[N+]23CCC(CC2)C(COc2cccc(F)c2)C3)o1)C1CCCCC1 (single isomer, unassigned) [Example 85] | > 8.30
O[C@](c1ccccc1)(c1ncc(C[N+]23CCC(CC2)[C@@H](CSc2ccc(Cl)cc2)C3)o1)C1CCCCC1 [Example 107, (R)-3-(4-Chloro-phenylsulfanylmethyl)-1-[2-(R)cyclohexyl-hydroxy-phenyl-methyl)-oxazol-5-ylmethyl]-1-azonia-bicyclo[2.2.2]octane; bromide] | > 8.30
OC(c1ccccc1)(c1noc(C[N+]23CCC(CC2)[C@@H](SCc2ccccc2)C3)n1)C1CCCCC1 (single isomer, unassigned) [Example 127] | > 8.30
OC(c1ccccc1)(c1ccccc1)c1ncc(C[N+]23CCC(CC2)[C@@H](Sc2ccc(F)c(F)c2)C3)o1 [Example 99, (R)-3-(3,4-Difluoro-phenylsulfanyl)-1-[2-(hydroxy-diphenyl-methyl)-oxazol-5-ylmethyl]-1-azonia-bicyclo[2.2.2]octane; bromide] | > 8.30
O[C@](c1ccccc1)(c1nnc(C[N+]23CCC(CC2)[C@@H](Sc2ccccc2)C3)o1)C1CCCCC1 [Example 71, 1-[5-((R)—Cyclohexyl-hydroxy-phenyl-methyl)-[1,3,4]oxadiazol-2-ylmethyl]-3-phenylsulfanyl-1-azonia-bicyclo[2.2.2]octane; bromide] | > 8.30
N#Cc1cccc(O[C@H]2C[N+]3(Cc4nc(C(O)(c5ccccc5)c5ccccc5)no4)CCC2CC3)c1 [Example 139, (R)-3-(3-Cyano-phenoxy)-1-[3-(hydroxy-diphenyl-methyl)-[1,2,4]oxadiazol-5-ylmethyl]-1-azonia-bicyclo[2.2.2]octane; chloride] | > 8.30
OC(c1ccccc1)(c1cc(C[N+]23CCC(CC2)[C@@H](Oc2ccc(F)cc2)C3)on1)C1CCCCC1 (single isomer, unassigned) [Example 143] | > 8.30
O[C@](c1ccccc1)(c1ncc(C[N+]23CCC(CC2)[C@@H](OCc2ccccc2F)C3)o1)C1CCCCC1 [Example 52, (R)-1-[2-((R)-cyclohexyl-hydroxy-phenyl-methyl)-oxazol-5-ylmethyl]-3-(2-fluoro-benzyloxy)-1-azonia-bicyclo[2.2.2]octane; formate] | > 8.30
OC(c1ccccc1)(c1noc(C[N+]23CCC(CC2)[C@@H](Oc2cccc(F)c2)C3)n1)C1CCCCC1 (single isomer, unassigned) [Example 128] | > 8.30
O[C@](c1ccccc1)(c1ncc(C[N+]23CCC(CC2)[C@H](SCc2ccccc2)C3)o1)C1CCCCC1 [Example 40, (S)-3-Benzylsulfanyl-1-[2-((R)-cyclohexyl-hydroxy-phenyl-methyl)-oxazol-5-ylmethyl]-1-azonia-bicyclo[2.2.2]octane; bromide] | > 8.30
O[C@](c1ccccc1)(c1ncc(C[N+]23CCC(CC2)[C@@H](CSc2ccccc2)C3)o1)C1CCCCC1 [Example 100, (R)-1-[2-((R)—Cyclohexyl-hydroxy-phenyl-methyl)-oxazol-5-ylmethyl]-3-phenylsulfanylmethyl-1-azonia-bicyclo[2.2.2]octane; bromide] | > 8.30
C=C(C)CO[C@H]1C[N+]2(Cc3cnc([C@](O)(c4ccccc4)C4CCCCC4)o3)CCC1CC2 [Example 112, (R)-1-[2-((R)—Cyclohexyl-hydroxy-phenyl-methyl)-oxazol-5-ylmethyl]-3-(2-methyl-allyloxy)-1-azonia-bicyclo[2.2.2]octane; bromide] | > 8.30
OC(c1ccccc1)(c1ccccc1)c1noc(C[N+]23CCC(CC2)[C@@H](OCc2ccc(F)cc2)C3)n1 [Example 141, (R)-3-(4-Fluoro-benzyloxy)-1-[3-(hydroxy-diphenyl-methyl)-[1,2,4]oxadiazol-5-ylmethyl]-1-azonia-bicyclo[2.2.2]octane; chloride] | > 8.30
OC(c1ccccc1)(c1ccccc1)c1ncc(C[N+]23CCC(CC2)[C@@H](Oc2ccc(Cl)cc2)C3)o1 [Example 63, (R)-3-(4-Chloro-phenoxy)-1-[2-(hydroxy-diphenyl-methyl)-oxazol-5-ylmethyl]-1-azonia-bicyclo[2.2.2]octane; bromide] | > 8.30
OC(c1ccccc1)(c1ccccc1)c1ncc(C[N+]23CCC(CC2)[C@H](COc2ccccc2)C3)o1 [Example 92, (S)-1-[2-(Hydroxy-diphenyl-methyl)-oxazol-5-ylmethyl]-3-phenoxymethyl-1-azonia-bicyclo[2.2.2]octane; bromide] | 7.70 to 8.30
OC(c1ccccc1)(c1ccccc1)c1ncc(C[N+]23CCC(CC2)[C@@H](Oc2ccsc2)C3)o1 [Example 114, (R)-1-[2-(Hydroxy-diphenyl-methyl)-oxazol-5-ylmethyl]-3-(thiophen-3-yloxy)-1-azonia-bicyclo[2.2.2]octane; bromide] | 7.70 to 8.30
O[C@@](c1ccccc1)(c1ncc(C[N+]23CCC(CC2)[C@@H](Oc2ccccc2)C3)o1)C1CCCCC1 [Example 7, (R)-1-[2-((S)—Cyclohexyl-hydroxy-phenyl-methyl)-oxazol-5-ylmethyl]-3-phenoxy-1-azonia-bicyclo[2.2.2]octane bromide] | 7.70 to 8.30
O[C@](c1ccccc1)(c1ncc(C[N+]23CCC(CC2)[C@@H](OCCC2CCCCC2)C3)o1)C1CCCCC1 [Example 53, (R)-3-(2-cyclohexyl-ethoxy)-1-[2-((R)-cyclohexyl-hydroxy-phenyl-methyl)-oxazol-5-ylmethyl]-1-azonia-bicyclo[2.2.2]octane; formate] | > 8.30
